# Measured values as given in patent US20210309669A1, “Heterocyclic Spiro Compounds As MAGL Inhibitors” (Pfizer Inc., priority 2018, published 2021).
# Columns and labels:
# [1] = Dog intravenous pharmacokinetic study; assay type: in vivo, Male beagle dogs; conditions: male, beagle, IV dose of 1 mg/kg, plasma, read-out: Dog t1/2 (converted)
# Protocol: The pharmacokinetic studies in dog were conducted at Pfizer Global Research and Development (Groton, Conn.). All in vivo studies were conducted in accordance with regulations and established guidelines using protocols reviewed and approved by the Pfizer Worldwide Research and Development (WRD, or other) Institutional Animal Care and Use Committee.
# Male beagle dogs were fasted overnight with water provided ad libitium. The dogs were fed at approximately 2-4 h post-dose. The dogs (n=2) were administered an IV bolus via the cephalic vein. Compounds of Examples 1-3 were tested along with the following four comparative compounds.
# All test compounds were administered an IV dose of 1 mg/kg of the specified compound which was delivered in a dose volume of 0.5 mL/kg. The dose solution was formulated in 10% PEG400/90% of 23% (w/v) HPBCD in de-ionized water for the following test compounds: Example 1, Example 2, and Example 3; in 20% SBECD (sulfobutyl either β-cyclodextrin) for Comparative-Compound 3; in 23% (w/v) HPBCD (hydroxypropyl β-cyclodextrin) in water for Comparative Compound 2; in 12.5.% SBECD in water with 0.25% 0.1N HCl to pH 5 for Comparative Compound 1. Serial blood samples were collected from each dog via the jugular vein prior to dose administration and at the following time points post-dose: 0.083, 0.25, 0.5, 1, 2, 4, 7, and 24 h for all compounds with an additional time point of 0.016 h collected for Comparative Compound 1 only. Blood samples were collected into tubes containing EDTA and placed on wet ice. Following centrifugation to afford plasma, the samples were transferred to polypropylene tubes and stored frozen at −20° C. to −80° C. until analysis.
# All plasma samples were quantified via liquid chromatography/tandem mass spectrometry (LC/MS-MS) using multiple reaction monitoring with non-validated methods. The plasma standard curves were generated with species specific plasma. Pharmacokinetic parameters were determined by non-compartmental analysis using Watson LIMS software version 7.4 (Thermo Fisher Scientific, Waltham, Mass.). The area under the concentration versus time curve (AUC) was calculated from the first time point to the last time point with measurable drug concentration using a linear trapezoidal rule. The area under the concentration versus time curve from the first time point to time infinity (AUC(0-inf)) was calculated by extrapolation from the time point where the last measurable concentration occurred to time infinity by dividing the observed concentration at the last time point by the elimination rate constant determined using linear regression of plasma concentration versus time data. The plasma clearance (CLp) was calculated by the equation CLp=dose/AUC(0-inf). The elimination half-life (t½) was calculated using the following equation t1/2=ln 2/k; k is equal to the rate constant of elimination calculated by the least squares of the log transformed data.
# [2] = biological target: T1, human recombinant Monoacylglycerol Lipase (Homo sapiens, UniProt Q99685); experiment: MAGL inactivation (enzyme progress curves, kinact/KI); assay type: biochemical; conditions: geometric mean
# T1 sequence (Q99685 1-303): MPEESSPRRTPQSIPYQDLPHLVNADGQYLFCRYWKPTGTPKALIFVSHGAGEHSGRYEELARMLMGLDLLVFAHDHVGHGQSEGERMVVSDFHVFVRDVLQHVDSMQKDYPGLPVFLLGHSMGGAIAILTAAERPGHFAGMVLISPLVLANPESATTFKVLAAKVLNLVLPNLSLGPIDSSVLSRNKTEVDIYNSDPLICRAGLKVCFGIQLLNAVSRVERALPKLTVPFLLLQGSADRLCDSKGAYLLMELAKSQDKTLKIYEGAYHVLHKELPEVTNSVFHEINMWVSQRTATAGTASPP
# Protocol: Assessment of MAGL inhibition utilizes human recombinant Monoacylglycerol Lipase and the fluorogenic substrate 7-hydroxycoumarinyl arachidonate (7-HCA, Biomol ST-502). 400 nL of a test compound at decreasing concentration (ranging from 150 μM down to 1.5 nM) was spotted into a 384-well back plate (PerkinElmer, 6007279) using a Labcyte Echo, followed by addition of 10 μL of MAGL enzyme in assay buffer (50 mM HEPES, pH 7.4, 100 mM NaCl, 5 mM MgCl2, 0.1% Triton X-100 and 25% glycerin). An equal volume of 7-HCA in assay buffer with 10% DMSO was added either immediately (T=0 min) or after a 30 minute incubation (T=30 min) to initiate the reaction. The final concentration of MAGL enzyme was […] and 7-HCA substrate was 5 μM. After these dilutions, the final concentration of the test compound ranged from 3 μM to 0.03 nM. The reaction was allowed to progress for 60 minutes, after which the plate was read at an Ex/Em of 340/465. Percent inhibitions were calculated based on control wells containing no compound (0% inhibition) and a control compound (e.g., a MAGL inhibitor whose activity is known or was previously reported in the literature, such as one with about 100% inhibition). IC50 values were generated based on a four parameter fit model using ABASE software from IDBS. See e.g., Wang, Y. et al., “A Fluorescence-Based Assay for Monoacylglycerol Lipase Compatible with Inhibitor Screening,” Assay and Drug Development Technologies, 2008, Vol. 6 (3) pp 387-393 (reporting an assay for measuring MAGL activity).
# To measure MAGL inactivation, the same protocol for the (T=0 min) MAGL inhibition IC50 assay was performed with data collected every minute to acquire enzyme progress curves at decreasing concentrations of compound.
# [3] = In vitro intrinsic clearance in human hepatocytes; assay type: in vitro ADME; conditions: 1 μM substrate, human hepatocytes 0.5 million viable cells per mL, 37° C.
# Protocol: Test Compounds (Example 1-3 and Comparative-Compounds 1-4) were prepared as solutions in DMSO at 3 mM which were then diluted in media containing WEM. The final concentration of DMSO in the incubation was 0.03% (v/v). The in vitro half-life (t½) of each compound was determined in incubations containing substrate (1 μM), human hepatocytes (0.5 million viable cells per mL final concentration) in media containing WEM, 50 mM HEPES buffer (pH 7.4), and 26 mM sodium bicarbonate at 37° C. (all final concentrations) in a 96-well plate. The reaction mixture was pre-warmed at 37° C. for 30 min prior to the initiation of the incubation. The incubation was quenched with acetonitrile containing internal standards at the following time points: 0, 5, 15, 30, 60, 120, and 240 min (individual incubation plates per time point). The samples were vortexed followed by centrifugation. An aliquot of supernatant was transferred to a clean 96-well plate and analyzed by LC/MS-MS using multiple reaction monitoring. For control experiments, hepatocytes were omitted from the incubations.
# The hepatocyte t½ (min) was obtained from a log-linear plot of the substrate depletion versus incubation time and was scaled to hepatic intrinsic clearance (CLint,app (μL/min/million cells) using the following equation: […]
SMILES,half-life [1] [h],MAGL kinact/KI [2],"HHEPs CLint, app [3] [μL/min/million]"
"O=C(OC(C(F)(F)F)C(F)(F)F)N1CCC2(CC1)C[C@@H](NS(=O)(=O)CC1CC1)CO2 [Example 1, 1,1,1,3,3,3-Hexafluoropropan-2-yl (3R)-3-{[(cyclopropylmethyl)sulfonyl]amino}-1-oxa-8-azaspiro[4.5]decane-8-carboxylate]",16.9,2990 1/s per M,<4.26
"O=C(OC(C(F)(F)F)C(F)(F)F)N1CCC2(CC1)C[C@@H](NS(=O)(=O)C1CC1)CO2 [Example 2, 1,1,1,3,3,3-Hexafluoropropan-2-yl (3R)-3-[(cyclopropylsulfonyl)amino]-1-oxa-8-azaspiro[4.5]decane-8-carboxylate]",40.7,2050 1/s per M,3.46
"O=C(OC(C(F)(F)F)C(F)(F)F)N1CCC2(CCC(NS(=O)(=O)CC3CC3)CO2)CC1 (stereo not drawn) [Example 3, 1,1,1,3,3,3-Hexafluoropropan-2-yl 3-{[(cyclopropylmethyl)sulfonyl]amino}-1-oxa-9-azaspiro[5.5]undecane-9-carboxylate]",26.3,3160 1/s per M,<3.57
